The source of these data is PMC4483627 (Marine Drugs, 2015).

Common to all, as to test: cell-based
Experiment [1] concerns the target T1, rat nAChR α3β2 (Rattus norvegicus, UniProt P04757+P12390).
T1 construct: expressed in transfected cells; host or cells: Xenopus oocytes injected with cRNA
In kind it is cell-based.

A further experiment has as its target T2, rat nAChR α2β4 (Rattus norvegicus, UniProt P12389+P12392).
T2 construct: expressed in transfected cells; host or cells: Xenopus oocytes injected with cRNA
The settings on record: for IC50: IC50 α2β4.

For the next experiment, the target named is T3, rat nAChR α7 (Rattus norvegicus, UniProt Q05941).
T3 construct: expressed in transfected cells; host or cells: Xenopus oocytes injected with cRNA

The next experiment has as its target T4, rat nAChR α9α10 (Rattus norvegicus, UniProt P43144+Q9JLB5).
T4 construct: expressed in transfected cells; host or cells: Xenopus oocytes injected with cRNA

A further experiment deals with T5, rat nAChR α3β4 (Rattus norvegicus, UniProt P04757+P12392).
T5 construct: expressed in transfected cells; host or cells: Xenopus oocytes injected with cRNA

Experiment [2] has as its target T1, rat nAChR α3β2. In kind it is cell-based. This is another data set of the same source.

The structures appear in SMILES notation. Values joined by “and” are separate entries in the source; they are usually repeats but may differ in a detail not shown here. Equal values may be shown once. Positions of bridges follow the written chain, without caps; N, C: chain ends. Residues, ends and D or L forms follow the SMILES beside them.

T3 sequence (Q05941 23-502 limits assumed): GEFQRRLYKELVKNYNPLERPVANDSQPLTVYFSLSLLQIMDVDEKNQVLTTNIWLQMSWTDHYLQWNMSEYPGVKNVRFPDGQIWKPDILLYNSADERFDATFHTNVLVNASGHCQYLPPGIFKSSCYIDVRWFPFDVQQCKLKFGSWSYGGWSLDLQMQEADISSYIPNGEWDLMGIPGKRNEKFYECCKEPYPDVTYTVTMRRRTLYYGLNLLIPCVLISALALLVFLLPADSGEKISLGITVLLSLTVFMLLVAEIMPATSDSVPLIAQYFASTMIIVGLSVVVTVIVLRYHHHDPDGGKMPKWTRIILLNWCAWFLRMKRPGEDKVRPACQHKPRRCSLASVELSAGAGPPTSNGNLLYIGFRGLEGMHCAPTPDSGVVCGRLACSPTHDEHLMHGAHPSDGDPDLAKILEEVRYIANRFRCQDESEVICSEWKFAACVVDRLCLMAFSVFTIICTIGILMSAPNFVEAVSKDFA
T2 sequence (P12389 28-511 limits assumed): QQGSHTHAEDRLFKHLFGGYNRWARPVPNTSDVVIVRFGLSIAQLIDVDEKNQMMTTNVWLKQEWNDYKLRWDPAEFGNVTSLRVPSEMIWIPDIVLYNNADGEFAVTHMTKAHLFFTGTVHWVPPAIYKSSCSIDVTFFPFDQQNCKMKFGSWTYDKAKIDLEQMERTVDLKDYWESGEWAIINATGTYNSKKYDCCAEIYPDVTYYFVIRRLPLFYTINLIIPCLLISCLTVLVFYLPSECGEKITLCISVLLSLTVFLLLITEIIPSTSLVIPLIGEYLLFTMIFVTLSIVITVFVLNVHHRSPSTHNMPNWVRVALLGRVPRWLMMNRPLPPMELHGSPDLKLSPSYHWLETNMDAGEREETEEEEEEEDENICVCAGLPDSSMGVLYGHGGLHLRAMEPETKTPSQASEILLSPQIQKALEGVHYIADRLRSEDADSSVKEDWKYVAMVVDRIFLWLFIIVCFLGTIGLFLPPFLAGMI
T2 sequence (P12392 21-495 limits assumed): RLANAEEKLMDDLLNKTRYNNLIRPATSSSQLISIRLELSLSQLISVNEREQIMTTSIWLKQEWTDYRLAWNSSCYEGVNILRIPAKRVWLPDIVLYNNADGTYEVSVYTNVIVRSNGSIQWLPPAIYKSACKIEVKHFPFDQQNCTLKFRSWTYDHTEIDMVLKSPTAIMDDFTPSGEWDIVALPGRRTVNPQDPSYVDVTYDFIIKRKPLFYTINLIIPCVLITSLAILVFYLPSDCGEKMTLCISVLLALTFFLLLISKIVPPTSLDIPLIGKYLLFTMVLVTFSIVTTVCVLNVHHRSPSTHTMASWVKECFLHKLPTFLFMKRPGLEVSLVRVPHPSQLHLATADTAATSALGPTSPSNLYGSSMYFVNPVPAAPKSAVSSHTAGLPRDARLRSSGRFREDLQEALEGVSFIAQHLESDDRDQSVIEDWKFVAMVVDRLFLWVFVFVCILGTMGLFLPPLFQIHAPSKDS
T1 sequence (P04757 26-499 limits assumed): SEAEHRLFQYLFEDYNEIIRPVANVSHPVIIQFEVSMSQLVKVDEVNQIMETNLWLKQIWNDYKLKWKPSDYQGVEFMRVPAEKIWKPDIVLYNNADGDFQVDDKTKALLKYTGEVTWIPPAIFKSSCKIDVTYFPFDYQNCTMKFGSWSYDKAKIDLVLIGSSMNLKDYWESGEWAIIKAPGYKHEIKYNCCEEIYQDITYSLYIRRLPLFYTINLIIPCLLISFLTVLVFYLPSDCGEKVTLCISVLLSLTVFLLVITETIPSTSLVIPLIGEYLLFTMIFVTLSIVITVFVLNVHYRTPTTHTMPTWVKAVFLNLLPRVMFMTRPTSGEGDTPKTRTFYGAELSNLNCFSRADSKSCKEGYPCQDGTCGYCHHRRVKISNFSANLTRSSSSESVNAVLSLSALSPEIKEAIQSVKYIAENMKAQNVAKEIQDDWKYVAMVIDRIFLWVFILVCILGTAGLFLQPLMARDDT
T1 sequence (P12390 25-500 limits assumed): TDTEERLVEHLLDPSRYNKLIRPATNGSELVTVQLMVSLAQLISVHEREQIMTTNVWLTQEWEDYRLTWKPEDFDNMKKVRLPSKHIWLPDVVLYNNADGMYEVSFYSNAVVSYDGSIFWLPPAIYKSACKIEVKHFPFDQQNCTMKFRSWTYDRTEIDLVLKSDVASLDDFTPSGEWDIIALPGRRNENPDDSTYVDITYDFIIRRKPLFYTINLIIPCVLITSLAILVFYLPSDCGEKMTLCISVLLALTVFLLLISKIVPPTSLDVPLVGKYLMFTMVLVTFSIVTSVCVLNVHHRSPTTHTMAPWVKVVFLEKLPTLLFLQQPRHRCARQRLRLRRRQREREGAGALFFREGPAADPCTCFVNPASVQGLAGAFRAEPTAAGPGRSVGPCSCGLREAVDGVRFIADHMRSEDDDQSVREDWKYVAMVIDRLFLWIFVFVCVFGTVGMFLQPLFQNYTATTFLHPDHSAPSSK
T5 sequence (P04757 26-499 limits assumed): as the sequence (P04757 26-499 limits assumed) above
T5 sequence (P12392 21-495 limits assumed): as the sequence (P12392 21-495 limits assumed) above
T4 sequence (P43144 26-479 limits assumed): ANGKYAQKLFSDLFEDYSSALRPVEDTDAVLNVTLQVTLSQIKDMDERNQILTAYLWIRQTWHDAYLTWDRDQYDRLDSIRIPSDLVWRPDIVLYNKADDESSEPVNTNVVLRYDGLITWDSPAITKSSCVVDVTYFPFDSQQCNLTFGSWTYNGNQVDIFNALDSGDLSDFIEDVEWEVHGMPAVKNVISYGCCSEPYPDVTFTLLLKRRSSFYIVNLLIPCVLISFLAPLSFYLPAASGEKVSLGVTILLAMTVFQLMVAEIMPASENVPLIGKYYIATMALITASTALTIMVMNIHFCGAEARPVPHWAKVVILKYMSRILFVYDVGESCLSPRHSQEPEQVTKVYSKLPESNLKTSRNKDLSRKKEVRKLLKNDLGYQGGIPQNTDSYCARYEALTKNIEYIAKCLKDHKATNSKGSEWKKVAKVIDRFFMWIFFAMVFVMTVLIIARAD
T4 sequence (Q9JLB5 25-447 limits assumed): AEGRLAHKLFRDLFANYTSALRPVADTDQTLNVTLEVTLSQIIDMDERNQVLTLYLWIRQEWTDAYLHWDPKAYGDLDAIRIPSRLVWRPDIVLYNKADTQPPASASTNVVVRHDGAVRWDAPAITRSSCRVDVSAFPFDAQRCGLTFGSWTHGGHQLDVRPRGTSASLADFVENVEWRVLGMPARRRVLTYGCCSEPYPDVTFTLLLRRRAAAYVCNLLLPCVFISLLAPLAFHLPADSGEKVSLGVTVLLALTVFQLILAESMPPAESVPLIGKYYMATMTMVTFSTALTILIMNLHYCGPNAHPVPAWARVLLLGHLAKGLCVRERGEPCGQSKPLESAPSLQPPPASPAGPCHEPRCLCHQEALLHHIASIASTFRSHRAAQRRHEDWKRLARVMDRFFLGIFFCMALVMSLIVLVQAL

Turning to `CC(C)C[C@@H]1NC(=O)[C@H](CCC(=O)O)NC(=O)[C@@H]2CCCN2C(=O)[C@H](Cc2c[nH]cn2)NC(=O)[C@H](CC(N)=O)NC(=O)CNC(=O)[C@H](Cc2c[nH]cn2)NC(=O)[C@@H]2CSSC[C@H](NC(=O)CN)C(=O)N[C@@H](CSSC[C@@H](C(N)=O)NC1=O)C(=O)N[C@@H]([C@@H](C)O)C(=O)N[C@@H](Cc1c[nH]cn1)C(=O)N1CCC[C@H]1C(=O)N[C@@H](C)C(=O)N2` [Mr1.7[E2G,V11G,S12N,Δ1]] (H-GCCTHPACHGNHPELC-NH2; disulfide 2-8, 3-16; N-terminus assumed), on rat nAChR α3β2 [1], the “50% recovery from block” value is on record as 3.3 min; the kon – broadly, the second-order rate constant of association – is 208000 M⁻¹ s⁻¹; the t1/2 is given as 3.286 (2.842–3.894) min. Moreover, at rat nAChR α3β2 [1] (SEM), the kobs amounted to 1.460 ± 0.2516 min⁻¹ and the koff (in general, a measure of how fast the partners let go of each other) is 0.00352 s⁻¹. Also, on rat nAChR α2β4, the α2β4/α3β2 is recorded as 89 and the IC50 (usually the concentration that gives 50% inhibition) was determined as 390 nM. In addition, at rat nAChR α7, the IC50 was above 10000 nM and the α7/α3β2 is listed as above 2272. Also, at rat nAChR α9α10, the IC50 is above 10000 nM and the α9α10/α3β2 is above 2272. On rat nAChR α3β4, this molecule returned an IC50 of 125 nM and a α3β4/α3β2 of 27.

As for `CC(C)C[C@@H]1NC(=O)[C@H](CCC(=O)O)NC(=O)[C@@H]2CCCN2C(=O)[C@H](Cc2c[nH]cn2)NC(=O)[C@H](CC(N)=O)NC(=O)[C@H](C(C)C)NC(=O)[C@H](Cc2c[nH]cn2)NC(=O)[C@@H]2CSSC[C@H](NC(=O)[C@H](CCC(=O)O)NC(=O)[C@@H]3CCCN3)C(=O)N[C@@H](CSSC[C@@H](C(N)=O)NC1=O)C(=O)N[C@@H]([C@@H](C)O)C(=O)N[C@@H](Cc1c[nH]cn1)C(=O)N1CCC[C@H]1C(=O)N[C@@H](C)C(=O)N2` [Mr1.7[S12N]] (H-PECCTHPACHVNHPELC-NH2; disulfide 3-9, 4-17), the kon at rat nAChR α3β2 [1] was 130000 M⁻¹ s⁻¹. Besides, the koff at rat nAChR α3β2 [1] (SEM) is 0.00407 s⁻¹. The IC50 is 370 nM and 367 nM against rat nAChR α2β4; 220 nM at rat nAChR α7; above 10000 nM against rat nAChR α9α10; 850 nM against rat nAChR α3β4.

In the case of `CC(C)C[C@@H]1NC(=O)[C@H](CCC(=O)O)NC(=O)[C@@H]2CCCN2C(=O)[C@H](Cc2c[nH]cn2)NC(=O)[C@H](CO)NC(=O)[C@H](C(C)C)NC(=O)[C@H](Cc2c[nH]cn2)NC(=O)[C@@H]2CSSC[C@H](NC(=O)[C@H](CCC(=O)O)NC(=O)[C@H](C)N)C(=O)N[C@@H](CSSC[C@@H](C(N)=O)NC1=O)C(=O)N[C@@H]([C@@H](C)O)C(=O)N[C@@H](Cc1c[nH]cn1)C(=O)N1CCC[C@H]1C(=O)N[C@@H](C)C(=O)N2` [Mr1.7[P1A]] (H-AECCTHPACHVSHPELC-NH2; disulfide 3-9, 4-17), the IC50 against rat nAChR α3β2 [2] was 42 nM.

On rat nAChR α3β2 [2], `CC(C)C[C@@H]1NC(=O)[C@H](CCC(=O)O)NC(=O)[C@@H]2CCCN2C(=O)[C@H](Cc2c[nH]cn2)NC(=O)[C@H](CO)NC(=O)[C@H](C(C)C)NC(=O)[C@H](C)NC(=O)[C@@H]2CSSC[C@H](NC(=O)[C@H](CCC(=O)O)NC(=O)[C@@H]3CCCN3)C(=O)N[C@@H](CSSC[C@@H](C(N)=O)NC1=O)C(=O)N[C@@H]([C@@H](C)O)C(=O)N[C@@H](Cc1c[nH]cn1)C(=O)N1CCC[C@H]1C(=O)N[C@@H](C)C(=O)N2` [Mr1.7[H10A]] (H-PECCTHPACAVSHPELC-NH2; disulfide 3-9, 4-17) had an IC50 of 123 nM.

`CC(C)C[C@@H]1NC(=O)[C@H](CCC(=O)O)NC(=O)[C@@H]2CCCN2C(=O)[C@H](Cc2c[nH]cn2)NC(=O)[C@H](CO)NC(=O)[C@H](C(C)C)NC(=O)[C@H](Cc2c[nH]cn2)NC(=O)[C@@H]2CSSC[C@H](NC(=O)[C@H](C)NC(=O)[C@@H]3CCCN3)C(=O)N[C@@H](CSSC[C@@H](C(N)=O)NC1=O)C(=O)N[C@@H]([C@@H](C)O)C(=O)N[C@@H](Cc1c[nH]cn1)C(=O)N1CCC[C@H]1C(=O)N[C@@H](C)C(=O)N2` [Mr1.7[E2A]] (H-PACCTHPACHVSHPELC-NH2; disulfide 3-9, 4-17): on rat nAChR α3β2 [1], the kon is 86300 M⁻¹ s⁻¹. Also, the koff on rat nAChR α3β2 [1] (SEM) was 0.0028 s⁻¹. The IC50 on rat nAChR α2β4, against rat nAChR α7, against rat nAChR α9α10 and against rat nAChR α3β4 was above 10000 nM each time. Besides, the “selectivity index (SI) for α3β2” value on rat nAChR α3β2 [2] is above 847.

The molecule `CC(C)C[C@@H]1NC(=O)[C@H](CCC(=O)O)NC(=O)[C@@H]2CCCN2C(=O)[C@H](C)NC(=O)[C@H](CO)NC(=O)[C@H](C(C)C)NC(=O)[C@H](Cc2c[nH]cn2)NC(=O)[C@@H]2CSSC[C@H](NC(=O)[C@H](CCC(=O)O)NC(=O)[C@@H]3CCCN3)C(=O)N[C@@H](CSSC[C@@H](C(N)=O)NC1=O)C(=O)N[C@@H]([C@@H](C)O)C(=O)N[C@@H](Cc1c[nH]cn1)C(=O)N1CCC[C@H]1C(=O)N[C@@H](C)C(=O)N2` [Mr1.7[H13A]] (H-PECCTHPACHVSAPELC-NH2; disulfide 3-9, 4-17; N-terminus assumed) displayed an IC50 against rat nAChR α3β2 [2] above 10000 nM.

As for `CC(C)C[C@@H]1NC(=O)[C@H](CCC(=O)O)NC(=O)[C@@H]2CCCN2C(=O)[C@H](Cc2c[nH]cn2)NC(=O)[C@H](CC(N)=O)NC(=O)CNC(=O)[C@H](Cc2c[nH]cn2)NC(=O)[C@@H]2CSSC[C@H](NC(=O)[C@H](CCC(=O)O)NC(=O)[C@@H]3CCCN3)C(=O)N[C@@H](CSSC[C@@H](C(N)=O)NC1=O)C(=O)N[C@@H]([C@@H](C)O)C(=O)N[C@@H](Cc1c[nH]cn1)C(=O)N1CCC[C@H]1C(=O)N[C@@H](C)C(=O)N2` [Mr1.7[V11G,S12N]] (H-PECCTHPACHGNHPELC-NH2; disulfide 3-9, 4-17), inhibition on rat nAChR α3β2 [2] was half-maximal at 28.4 nM (IC50).

Molecule `CC(C)C[C@@H]1NC(=O)[C@H](CCC(=O)O)NC(=O)[C@@H]2CCCN2C(=O)[C@H](Cc2c[nH]cn2)NC(=O)[C@H](CO)NC(=O)[C@H](C(C)C)NC(=O)[C@H](Cc2c[nH]cn2)NC(=O)[C@@H]2CSSC[C@H](NC(=O)[C@H](CCC(=O)O)NC(=O)[C@@H]3CCCN3C(=O)[C@@H](N)CCCNC(=N)N)C(=O)N[C@@H](CSSC[C@@H](C(N)=O)NC1=O)C(=O)N[C@@H]([C@@H](C)O)C(=O)N[C@@H](Cc1c[nH]cn1)C(=O)N1CCC[C@H]1C(=O)N[C@@H](C)C(=O)N2` [RaaMr1.7] (H-RPECCTHPACHVSHPELC-NH2; disulfide 4-10, 5-18; N-terminus assumed) came in with a 50% inhibitory concentration (IC50) on rat nAChR α3β2 [2] of 41.2 nM.

In the case of `CC(C)C[C@@H]1NC(=O)[C@H](CCC(=O)O)NC(=O)[C@@H]2CCCN2C(=O)[C@H](Cc2c[nH]cn2)NC(=O)[C@H](CC(N)=O)NC(=O)[C@H](C(C)C)NC(=O)[C@H](Cc2c[nH]cn2)NC(=O)[C@@H]2CSSC[C@H](NC(=O)[C@H](C)NC(=O)[C@@H]3CCCN3)C(=O)N[C@@H](CSSC[C@@H](C(N)=O)NC1=O)C(=O)N[C@@H]([C@@H](C)O)C(=O)N[C@@H](Cc1c[nH]cn1)C(=O)N1CCC[C@H]1C(=O)N[C@@H](C)C(=O)N2` [Mr1.7[E2A,S12N]] (H-PACCTHPACHVNHPELC-NH2; disulfide 3-9, 4-17), the kon on rat nAChR α3β2 [1] is 73800 M⁻¹ s⁻¹. Also, the koff on rat nAChR α3β2 [1] (SEM) is 0.00173 s⁻¹. Besides, the IC50 was 3490 nM on rat nAChR α2β4, 591 nM on rat nAChR α7, above 10000 nM against rat nAChR α9α10 and 556 nM at rat nAChR α3β4.

Turning to `CC(C)C[C@@H]1NC(=O)[C@H](CCC(=O)O)NC(=O)[C@@H]2CCCN2C(=O)[C@H](Cc2c[nH]cn2)NC(=O)[C@H](CO)NC(=O)CNC(=O)[C@H](Cc2c[nH]cn2)NC(=O)[C@@H]2CSSC[C@H](NC(=O)[C@H](CCC(=O)O)NC(=O)[C@@H]3CCCN3)C(=O)N[C@@H](CSSC[C@@H](C(N)=O)NC1=O)C(=O)N[C@@H]([C@@H](C)O)C(=O)N[C@@H](Cc1c[nH]cn1)C(=O)N1CCC[C@H]1C(=O)N[C@@H](C)C(=O)N2` [Mr1.7[V11G]] (H-PECCTHPACHGSHPELC-NH2; disulfide 3-9, 4-17), inhibition on rat nAChR α3β2 [2] was half-maximal at 138 nM (IC50).
